In paper PMC10112504, “Novel 4-thiophenyl-pyrazole, pyridine, and pyrimidine derivatives as potential antitumor candidates targeting both EGFR and VEGFR-2; design, synthesis, biological evaluations, and in silico studies” (RSC Advances, 2023):

How the values were obtained:
C. albicans = assay: Antifungal activity, inhibition zone approach; type: cell-based, Candida albicans; conditions: for C. albicans Diameter of inhibition zone (mm): Fungi; for antimicrobial activity with C. albicans, in words: authors' grading of Table 2 values, key not given; for C. albicans % Activity index: ketoconazole = 100
S. aureus = assay: Antibacterial activity, inhibition zone approach; type: cell-based, Staphylococcus aureus; conditions: for S. aureus Diameter of inhibition zone (mm): Gram-positive bacteria; for antimicrobial activity with S. aureus, in words: authors' grading of Table 2 values, key not given; for S. aureus % Activity index: gentamicin = 100
VEGFR-2 = VEGFR-2 (Homo sapiens, UniProt P35968); assay: VEGFR-2 inhibitory activity, homogeneous luminescence release assay; type: biochemical; conditions: reference sorafenib; read-out: VEGFR-2 inhibition IC50
Description: […]. Briefly, these μM inhibitory concentrations recommend greatly the proposed rationale design for the investigated compounds to act as promising dual EGFR/VEGFR-2 inhibitors.

EGFR = EGFR (Homo sapiens, UniProt P00533); assay: EGFR inhibitory activity, homogeneous luminescence release assay; type: biochemical; conditions: reference erlotinib; read-out: EGFR inhibition IC50
B. subtilis = assay: Antibacterial activity, inhibition zone approach; type: cell-based, Bacillus subtilis; conditions: for B. subtilis Diameter of inhibition zone (mm): Gram-positive bacteria; for antimicrobial activity with B. subtilis, in words: authors' grading of Table 2 values, key not given; for B. subtilis % Activity index: gentamicin = 100
MCF-7 = assay: Anti-proliferative activity, SRB colorimetric assay; type: cell-based; conditions: for IC50: Homo sapiens, MCF7, MCF-7 cancer cell line, SRB assay, read-out: Cell lines (IC50 μM) MCF-7; for anti-proliferative activity against MCF-7, in words: authors' grading of Table 1 values, key not given
HepG-2 = assay: as above; type: cell-based; conditions: for IC50: Homo sapiens, HepG2, HepG-2 cancer cell line, SRB assay, read-out: Cell lines (IC50 μM) HepG-2; for anti-proliferative activity against HepG-2, in words: authors' grading of Table 1 values, key not given
E. coli = assay: Antibacterial activity, inhibition zone approach; type: cell-based, Escherichia coli; conditions: for E. coli Diameter of inhibition zone (mm): Gram-negative bacteria; for antimicrobial activity with E. coli, in words: authors' grading of Table 2 values, key not given; for E. coli % Activity index: gentamicin = 100
A. flavus = assay: Antifungal activity, inhibition zone approach; type: cell-based, Aspergillus flavus; conditions: for A. flavus Diameter of inhibition zone (mm): Fungi; for antimicrobial activity with A. flavus, in words: authors' grading of Table 2 values, key not given; for A. flavus % Activity index: ketoconazole = 100
P. aeuroginosa = assay: Antibacterial activity, inhibition zone approach; type: cell-based, Pseudomonas aeuroginosa; conditions: for P. aeuroginosa Diameter of inhibition zone (mm): Gram-negative bacteria; for antimicrobial activity with P. aeuroginosa, in words: authors' grading of Table 2 values, key not given; for P. aeuroginosa % Activity index: gentamicin = 100

Sequence of EGFR (P00533 25-1210): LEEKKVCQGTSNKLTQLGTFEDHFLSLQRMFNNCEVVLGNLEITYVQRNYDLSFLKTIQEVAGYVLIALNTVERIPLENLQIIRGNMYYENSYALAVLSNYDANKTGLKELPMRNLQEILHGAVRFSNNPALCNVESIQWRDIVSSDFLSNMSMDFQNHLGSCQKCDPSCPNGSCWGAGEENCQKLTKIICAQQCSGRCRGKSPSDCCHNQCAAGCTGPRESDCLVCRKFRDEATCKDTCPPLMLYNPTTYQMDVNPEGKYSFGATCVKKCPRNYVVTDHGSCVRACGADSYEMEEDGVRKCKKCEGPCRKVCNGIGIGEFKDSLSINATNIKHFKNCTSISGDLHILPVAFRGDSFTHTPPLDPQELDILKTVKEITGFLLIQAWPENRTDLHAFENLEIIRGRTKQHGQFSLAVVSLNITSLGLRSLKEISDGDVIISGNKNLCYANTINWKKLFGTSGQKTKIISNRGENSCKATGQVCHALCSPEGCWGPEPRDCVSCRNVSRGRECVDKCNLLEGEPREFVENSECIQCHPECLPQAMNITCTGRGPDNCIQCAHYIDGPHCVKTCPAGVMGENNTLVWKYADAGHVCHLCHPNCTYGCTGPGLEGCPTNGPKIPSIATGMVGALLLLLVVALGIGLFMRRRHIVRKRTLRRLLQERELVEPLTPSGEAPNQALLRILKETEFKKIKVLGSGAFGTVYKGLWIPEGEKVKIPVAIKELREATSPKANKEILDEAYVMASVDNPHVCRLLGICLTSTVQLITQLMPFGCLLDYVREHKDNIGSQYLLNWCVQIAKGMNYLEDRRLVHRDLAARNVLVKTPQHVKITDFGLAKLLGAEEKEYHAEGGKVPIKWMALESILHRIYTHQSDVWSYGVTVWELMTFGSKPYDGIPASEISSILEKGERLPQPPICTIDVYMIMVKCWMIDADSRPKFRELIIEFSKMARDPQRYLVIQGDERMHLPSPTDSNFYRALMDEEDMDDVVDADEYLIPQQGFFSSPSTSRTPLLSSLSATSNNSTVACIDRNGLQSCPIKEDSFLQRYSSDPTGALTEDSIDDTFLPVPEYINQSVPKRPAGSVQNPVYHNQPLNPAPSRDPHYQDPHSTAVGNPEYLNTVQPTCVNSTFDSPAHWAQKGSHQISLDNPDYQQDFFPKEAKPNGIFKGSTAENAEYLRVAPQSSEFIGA
Sequence of VEGFR-2 (P35968 20-1356): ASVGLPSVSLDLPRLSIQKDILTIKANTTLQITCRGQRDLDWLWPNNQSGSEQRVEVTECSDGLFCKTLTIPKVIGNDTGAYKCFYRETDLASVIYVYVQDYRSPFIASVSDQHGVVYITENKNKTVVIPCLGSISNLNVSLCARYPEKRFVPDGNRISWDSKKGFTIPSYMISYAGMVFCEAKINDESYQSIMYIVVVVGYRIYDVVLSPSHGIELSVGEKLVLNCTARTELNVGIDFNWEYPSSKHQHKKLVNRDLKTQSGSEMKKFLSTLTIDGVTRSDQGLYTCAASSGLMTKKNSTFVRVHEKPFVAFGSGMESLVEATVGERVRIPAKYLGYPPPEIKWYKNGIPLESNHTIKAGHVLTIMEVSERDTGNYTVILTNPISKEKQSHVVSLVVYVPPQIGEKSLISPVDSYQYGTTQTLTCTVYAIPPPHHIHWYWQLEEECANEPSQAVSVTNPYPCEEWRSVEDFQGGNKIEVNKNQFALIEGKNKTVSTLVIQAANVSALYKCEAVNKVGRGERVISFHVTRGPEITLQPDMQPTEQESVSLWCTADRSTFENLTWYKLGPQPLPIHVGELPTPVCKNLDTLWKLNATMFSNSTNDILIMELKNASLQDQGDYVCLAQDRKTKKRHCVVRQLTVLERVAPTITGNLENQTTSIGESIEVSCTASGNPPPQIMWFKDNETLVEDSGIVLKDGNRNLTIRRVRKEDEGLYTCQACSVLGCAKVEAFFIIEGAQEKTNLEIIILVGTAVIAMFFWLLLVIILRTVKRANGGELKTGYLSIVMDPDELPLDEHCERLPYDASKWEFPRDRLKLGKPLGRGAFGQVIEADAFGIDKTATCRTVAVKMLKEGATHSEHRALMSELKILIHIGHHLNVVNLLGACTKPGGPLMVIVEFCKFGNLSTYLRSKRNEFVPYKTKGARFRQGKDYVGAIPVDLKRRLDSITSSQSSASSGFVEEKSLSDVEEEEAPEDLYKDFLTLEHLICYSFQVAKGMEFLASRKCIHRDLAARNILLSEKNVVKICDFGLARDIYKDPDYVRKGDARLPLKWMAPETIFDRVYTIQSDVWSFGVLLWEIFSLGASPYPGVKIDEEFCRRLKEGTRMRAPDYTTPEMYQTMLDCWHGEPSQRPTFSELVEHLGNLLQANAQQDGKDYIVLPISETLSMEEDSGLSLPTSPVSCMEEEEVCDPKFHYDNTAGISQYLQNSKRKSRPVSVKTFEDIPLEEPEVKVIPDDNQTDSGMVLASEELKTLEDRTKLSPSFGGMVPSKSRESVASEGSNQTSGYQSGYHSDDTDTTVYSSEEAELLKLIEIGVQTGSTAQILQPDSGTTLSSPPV

Row | SMILES | C. albicans Diameter of inhibition zone (mm) (C. albicans) | antimicrobial activity with C. albicans, in words (C. albicans) | C. albicans % Activity index (C. albicans) [%] | S. aureus Diameter of inhibition zone (mm) (S. aureus) | antimicrobial activity with S. aureus, in words (S. aureus) | S. aureus % Activity index (S. aureus) [%] | B. subtilis Diameter of inhibition zone (mm) (B. subtilis) | antimicrobial activity with B. subtilis, in words (B. subtilis) | B. subtilis % Activity index (B. subtilis) [%] | melting point [°C] | IC50 (MCF-7) [µM] | anti-proliferative activity against MCF-7, in words (MCF-7) | IC50 (HepG-2) [µM] | anti-proliferative activity against HepG-2, in words (HepG-2) | E. coli Diameter of inhibition zone (mm) (E. coli) | E. coli % Activity index (E. coli) [%] | A. flavus Diameter of inhibition zone (mm) (A. flavus) | A. flavus % Activity index (A. flavus) [%] | P. aeuroginosa Diameter of inhibition zone (mm) (P. aeuroginosa) | P. aeuroginosa % Activity index (P. aeuroginosa) [%] | also measured
1 | CCOC(=O)CN1N=C(c2ccc(O)cc2)CC1c1cccs1 (stereo not drawn) [15a, ethyl 2-(3-(4-hydroxyphenyl)-5-(thiophen-2-yl)-4,5-dihydro-1H-pyrazol-1-yl)acetate] | 18 | strong | 64.3 | 10 | moderate | 55.5 | 15 | strong | 68.2 | 65 | 9.48 ± 0.7 | very strong | 21.4 ± 1.5 | moderate | 9 | 42.8 | 15 | 57.7 | 14 | 73.7 | IC50 (VEGFR-2): 1.14 µM; IC50 (EGFR): 0.894 µM; antimicrobial activity with E. coli, in words (E. coli): moderate; antimicrobial activity with A. flavus, in words (A. flavus): moderate; antimicrobial activity with P. aeuroginosa, in words (P. aeuroginosa): strong
2 | N#Cc1c(N)c2c(-c3cccs3)cc(-c3ccc(O)cc3)nc2[nH]c1=O [6a, 4-amino-7-(4-hydroxyphenyl)-2-oxo-5-(thiophen-2-yl)-1,2-dihydro-1,8-naphthyridine-3-carbonitrile] | 12 | – | 42.8 | 5 | – | 27.8 | 9 | – | 40.9 | 260 | 19.1 ± 1.6 | strong | 16.2 ± 1.3 | strong | 4 | 19.0 | 8 | 30.8 | 7 | 36.8 | IC50 (EGFR): 0.326 µM
3 | N#Cc1c(-c2cccs2)cc(-c2ccc(O)cc2)nc1N [2a, 2-Amino-6-(4-hydroxyphenyl)-4-(thiophen-2-yl)nicotinonitrile] | 18 | strong | 64.3 | 10 | moderate | 55.5 | 15 | strong | 68.2 | 260 | 9.59 ± 0.8 | very strong | 8.42 ± 0.6 | very strong | 9 | 42.8 | 12 | 46.1 | 12 | 63.1 | IC50 (VEGFR-2): 0.195 µM; IC50 (EGFR): 0.209 µM; antimicrobial activity with E. coli, in words (E. coli): moderate; antimicrobial activity with A. flavus, in words (A. flavus): moderate; antimicrobial activity with P. aeuroginosa, in words (P. aeuroginosa): strong
4 | N#Cc1c(-c2cccs2)cc(-c2ccc(O)cc2)nc1O [5a, 2-hydroxy-6-(4-hydroxyphenyl)-4-(thiophen-2-yl)nicotinonitrile] | 14 | – | 50.0 | 6 | – | 33.3 | 10 | – | 45.4 | 200 | 38.4 ± 2.5 | moderate | 43 ± 2.5 | moderate | 5 | 23.8 | 8 | 30.8 | 10 | 52.6 | –
5 | O=C(CCl)SC(=S)N1N=C(c2ccc(O)cc2)CC1c1cccs1 (stereo not drawn) [20a, 2-Chloroacetic-3-(4-hydroxyphenyl)-5-(thiophen-2-yl)-4,5-dihydro-1H-pyrazole-1-carbothioic thioanhydride] | 9 | weak | 32.1 | 3 | weak | 16.7 | 6 | weak | 27.3 | 265 | 56.2 ± 3.3 | weak | 67.4 ± 3.5 | weak | – | – | 7 | 26.9 | 4 | 21.0 | antimicrobial activity with E. coli, in words (E. coli): weak; antimicrobial activity with A. flavus, in words (A. flavus): weak; antimicrobial activity with P. aeuroginosa, in words (P. aeuroginosa): weak
6 | NC(=S)n1nc(-c2ccc(O)cc2)cc1-c1cccs1 [10a, 3-(4-hydroxyphenyl)-5-(thiophen-2-yl)-1H-pyrazole-1-carbothioamide] | 13 | moderate | 46.4 | 9 | moderate | 50.0 | 13 | moderate | 59.1 | 195 to 197 | 23.7 ± 1.7 | moderate | 39.1 ± 2.4 | moderate | 8 | 38.1 | 11 | 42.3 | 12 | 63.1 | antimicrobial activity with E. coli, in words (E. coli): moderate; antimicrobial activity with A. flavus, in words (A. flavus): moderate; antimicrobial activity with P. aeuroginosa, in words (P. aeuroginosa): moderate
